Assay results reported in ChEMBL document CHEMBL5252665, “The Identification of GPR52 Agonist HTL0041178, a Potential Therapy for Schizophrenia and Related Psychiatric Disorders” (ACS Med Chem Lett, 2023).
Blank lines part the entries; values can stand above or below the molecule they belong to.

Key:
[1] = Octanol-water partition coefficient, log D of the compound by chromatographic method; assay type: physicochemical
[2] = Metabolic stability in rat liver microsomes assessed as intrinsic clearance preincubation with compound followed by NADPH addition and measured after 45 mins by LC-MS/MS analysis; assay type: ADME, Microsome; settings: read-out: CLH
[3] = Metabolic stability in human liver microsomes assessed as intrinsic clearance preincubation with compound followed by NADPH addition and measured after 45 mins by LC-MS/MS analysis; assay type: ADME, Microsome; settings: read-out: CLH
[4] = Apparent permeability of compound across apical to basolateral side in dog MDCK-MDR1 cells incubated for 1 hr by LC-MS/MS analysis; assay type: ADME, cell-based, Canis lupus familiaris
[5] = Clearance in Sprague-Dawley rat plasma at 1 mg/kg,iv by LC-MS/MS analysis; assay type: ADME, organism-based
[6] = Volume of distribution at steady state in Sprague-Dawley rat at 1 mg/kg,iv by LC-MS/MS analysis; assay type: ADME, organism-based; settings: in vivo, read-out: Vdss
[7] = Half life in Sprague-Dawley rat at 1 mg/kg,iv by LC-MS/MS analysis; assay type: ADME, organism-based; settings: in vivo
[8] = AUC (0 to infinity) in Sprague-Dawley rat at 1 mg/kg,iv by LC-MS/MS analysis; assay type: ADME, organism-based; parameters: dose 1 mg/kg, route iv; settings: in vivo
[9] = Unbound brain-to-plasma concentration ratio in Sprague-Dawley rat plasma at 1 mg/kg,iv by LC-MS/MS analysis; assay type: ADME, organism-based; settings: brain and plasma, read-out: K(p,uu,brain)
[10] = AUC (0 to infinity) in Sprague-Dawley rat at 3 mg/kg,po by LC-MS/MS analysis; assay type: ADME, organism-based; parameters: dose 3 mg/kg, route po; settings: in vivo
[11] = Cmax in Sprague-Dawley rat at 3 mg/kg,po by LC-MS/MS analysis; assay type: ADME, organism-based; parameters: dose 3 mg/kg, route po; settings: in vivo
[12] = Oral bioavailability in Sprague-Dawley rat at 3 mg/kg by LC-MS/MS analysis; assay type: ADME, organism-based; settings: in vivo
[13] = Oral absorption in Sprague-Dawley rat at 3 mg/kg by LC-MS/MS analysis; assay type: ADME, organism-based; settings: in vivo
[14] = Lipophilicity, logP of the compound by shake flask assay; assay type: physicochemical; settings: octanol/water
[15] = Clearance in CD-1 mouse plasma at 1 mg/kg,iv by LC-MS/MS analysis; assay type: ADME, organism-based
[16] = Volume of distribution at steady state in CD-1 mouse at 1 mg/kg,iv by LC-MS/MS analysis; assay type: ADME, organism-based; settings: in vivo, read-out: Vdss
[17] = Half life in CD-1 mouse at 1 mg/kg,iv by LC-MS/MS analysis; assay type: ADME, organism-based; settings: in vivo
[18] = AUC (0 to infinity) in CD-1 mouse at 1 mg/kg,iv by LC-MS/MS analysis; assay type: ADME, organism-based; parameters: dose 1 mg/kg, route iv; settings: in vivo
[19] = AUC (0 to infinity) in CD-1 mouse at 3 mg/kg,po by LC-MS/MS analysis; assay type: ADME, organism-based; parameters: dose 3 mg/kg, route po; settings: in vivo
[20] = Cmax in CD-1 mouse at 3 mg/kg,po by LC-MS/MS analysis; assay type: ADME, organism-based; parameters: dose 3 mg/kg, route po; settings: in vivo
[21] = Oral bioavailability in CD-1 mouse at 3 mg/kg by LC-MS/MS analysis; assay type: ADME, organism-based; settings: in vivo
[22] = Oral absorption in CD-1 mouse at 3 mg/kg by LC-MS/MS analysis; assay type: ADME, organism-based; settings: in vivo
[23] = Clearance in cynomolgus monkey plasma at 1 mg/kg,iv by LC-MS/MS analysis; assay type: ADME, organism-based, Macaca fascicularis
[24] = Volume of distribution at steady state in cynomolgus monkey at 1 mg/kg,iv by LC-MS/MS analysis; assay type: ADME, organism-based, Macaca fascicularis; settings: in vivo, read-out: Vdss
[25] = Half life in cynomolgus monkey at 1 mg/kg,iv by LC-MS/MS analysis; assay type: ADME, organism-based, Macaca fascicularis; settings: in vivo
[26] = AUC (0 to infinity) in cynomolgus monkey at 1 mg/kg,iv by LC-MS/MS analysis; assay type: ADME, organism-based, Macaca fascicularis; parameters: dose 1 mg/kg, route iv; settings: in vivo
[27] = AUC (0 to infinity) in cynomolgus monkey at 3 mg/kg,po by LC-MS/MS analysis; assay type: ADME, organism-based, Macaca fascicularis; parameters: dose 3 mg/kg, route po; settings: in vivo
[28] = Cmax in cynomolgus monkey at 3 mg/kg,po by LC-MS/MS analysis; assay type: ADME, organism-based, Macaca fascicularis; parameters: dose 3 mg/kg, route po; settings: in vivo
[29] = Oral bioavailability in cynomolgus monkey at 3 mg/kg by LC-MS/MS analysis; assay type: ADME, organism-based, Macaca fascicularis; settings: in vivo
[30] = Oral absorption in cynomolgus monkey at 3 mg/kg by LC-MS/MS analysis; assay type: ADME, organism-based, Macaca fascicularis; settings: in vivo, read-out: Drug absorption
[31] = Terminal brain concentration in Sprague-Dawley rat model of amphetamine-induced hyperlocomotion activity at 10 mg/kg, po measured after 2 hrs by LC-MS/MS analysis; assay type: ADME, organism-based; settings: read-out: Clast
[32] = Terminal free brain concentration in Sprague-Dawley rat model of amphetamine-induced hyperlocomotion activity at 10 mg/kg, po measured after 2 hrs by LC-MS/MS analysis; assay type: ADME, organism-based; settings: in vivo

- chromatographic logD [1]: 4
Structure (SMILES): O=C1NCCc2c1nnn2-c1ccnc(Cc2cc(F)cc(C(F)(F)F)c2)c1

- microsomal CLint [2]: 46 µL/min/mg
- microsomal CLint [3]: < 10 µL/min/mg
- Papp A→B at 1 h [4]: 46 ×10⁻⁶ cm/s
- chromatographic logD [1]: 4.9
- clearance [5]: 39 mL/min/kg
- Vd [6]: 1.5 L/kg
- half-life [7]: 0.6 h
- AUC(0-inf) [8]: 440 ng·h/mL
- Kp uu [9]: 0.4
- AUC(0-inf) [10]: 709 ng·h/mL
- Cmax [11]: 143 ng/mL
- bioavailability [12]: 54%
- Fa [13]: > 100%
Structure (SMILES): O=C1NCCc2c1cnn2-c1cc(Cc2cccc(C(F)(F)F)c2)ccn1

- chromatographic logD [1]: 4
Structure (SMILES): O=C1NCc2c1cnn2-c1ccnc(Cc2cc(F)cc(C(F)(F)F)c2)c1

- microsomal CLint [2]: 102 µL/min/mg
- microsomal CLint [3]: 21 µL/min/mg
- chromatographic logD [1]: 4.2
Structure (SMILES): O=C1NCCCc2c1cnn2-c1ccnc(Cc2cc(F)cc(C(F)(F)F)c2)c1

- microsomal CLint [2]: 33 µL/min/mg
- microsomal CLint [3]: 62 µL/min/mg
- Papp A→B at 1 h [4]: 30 ×10⁻⁶ cm/s
- chromatographic logD [1]: 5.8
Structure (SMILES): CN1CCc2c(cnn2-c2cc(Cc3cc(F)cc(C(F)(F)F)c3)ccn2)C1=O

- microsomal CLint [2]: 71 µL/min/mg
- microsomal CLint [3]: 32 µL/min/mg
- Papp A→B at 1 h [4]: 28 ×10⁻⁶ cm/s
- chromatographic logD [1]: 3.6
Structure (SMILES): Cc1nn(-c2ccnc(Cc3cc(F)cc(C(F)F)c3)c2)c2c1C(=O)NCC2

- microsomal CLint [2]: 57 µL/min/mg
- microsomal CLint [3]: 24 µL/min/mg
- chromatographic logD [1]: 4.6
Structure (SMILES): O=C1NCCc2c1cnn2-c1ccnc(Cc2cc(F)c(Cl)c(C(F)(F)F)c2)c1

- microsomal CLint [2]: 40 µL/min/mg
- microsomal CLint [3]: 31 µL/min/mg
- Papp A→B at 1 h [4]: 46 ×10⁻⁶ cm/s
- chromatographic logD [1]: 4.4
Structure (SMILES): Cc1nn(-c2ccnc(Cc3cc(F)cc(C(F)(F)F)c3)c2)c2c1C(=O)NCC2

- microsomal CLint [2]: 25 µL/min/mg
- microsomal CLint [3]: < 10 µL/min/mg
- Papp A→B at 1 h [4]: 38 ×10⁻⁶ cm/s
- chromatographic logD [1]: 3.8
- logP [14]: 4
Structure (SMILES): O=C1NCCc2c1cnn2-c1cncc(Cc2cc(F)cc(C(F)(F)F)c2)c1

- microsomal CLint [2]: 63 µL/min/mg
- microsomal CLint [3]: 27 µL/min/mg
- Papp A→B at 1 h [4]: 48 ×10⁻⁶ cm/s
- chromatographic logD [1]: 4.1
Structure (SMILES): Cc1nn(-c2cncc(Cc3cc(F)cc(C(F)(F)F)c3)c2)c2c1C(=O)NCC2

- microsomal CLint [2]: 25 µL/min/mg
- microsomal CLint [3]: 11 µL/min/mg
- Papp A→B at 1 h [4]: 48 ×10⁻⁶ cm/s
- chromatographic logD [1]: 3.9
- logP [14]: 4.2
- clearance [5]: 16 mL/min/kg
- Vd [6]: 1 L/kg
- half-life [7]: 0.8 h
- AUC(0-inf) [8]: 1020 ng·h/mL
- Kp uu [9]: 0.35
- AUC(0-inf) [10]: 1260 ng·h/mL
- Cmax [11]: 285 ng/mL
- bioavailability [12]: 40%
- Fa [13]: 52%
- clearance [15]: 6 mL/min/kg
- Vd [16]: 1.5 L/kg
- half-life [17]: 3.4 h
- AUC(0-inf) [18]: 2610 ng·h/mL
- AUC(0-inf) [19]: 5910 ng·h/mL
- Cmax [20]: 486 ng/mL
- bioavailability [21]: 95%
- Fa [22]: 80%
- clearance [23]: 2 mL/min/kg
- Vd [24]: 1.4 L/kg
- half-life [25]: 8 h
- AUC [26]: 7854 ng·h/mL
- AUC [27]: 6327 ng·h/mL
- Cmax [28]: 581 ng/mL
- F [29]: 81%
- Fa [30]: 85%
- concentration at 2 h [31]: 1560 nM
- Drug uptake(free) [32]: 41.2 nM
Structure (SMILES): O=C1NCCc2c1cnn2-c1ccnc(Cc2cc(F)cc(C(F)(F)F)c2)c1

- microsomal CLint [2]: 120 µL/min/mg
- microsomal CLint [3]: 50 µL/min/mg
- Papp A→B at 1 h [4]: 25 ×10⁻⁶ cm/s
- chromatographic logD [1]: 6.7
Structure (SMILES): O=C1CCCc2c1cnn2-c1cc(Cc2cccc(C(F)(F)F)c2)ccn1

- microsomal CLint [2]: 30 µL/min/mg
- microsomal CLint [3]: 15 µL/min/mg
- Papp A→B at 1 h [4]: 32 ×10⁻⁶ cm/s
- chromatographic logD [1]: 5.1
- logP [14]: 3.1
Structure (SMILES): O=C1NCCc2c1cnn2-c1cc(Cc2cc(F)cc(C(F)(F)F)c2)ccn1

- microsomal CLint [2]: 63 µL/min/mg
- microsomal CLint [3]: 34 µL/min/mg
- Papp A→B at 1 h [4]: 32 ×10⁻⁶ cm/s
- chromatographic logD [1]: 3.9
Structure (SMILES): Cc1nn(-c2ccnc(Cc3cc(F)cc(OC(F)F)c3)c2)c2c1C(=O)NCC2

- microsomal CLint [2]: 37 µL/min/mg
- microsomal CLint [3]: 15 µL/min/mg
- Papp A→B at 1 h [4]: 30 ×10⁻⁶ cm/s
- chromatographic logD [1]: 3.3
Structure (SMILES): O=C1NCCc2c1cnn2-c1ccnc(Cc2cc(F)cc(C(F)F)c2)c1

- microsomal CLint [2]: 48 µL/min/mg
- microsomal CLint [3]: < 10 µL/min/mg
- chromatographic logD [1]: 5
Structure (SMILES): O=C1NCCc2c1cnn2-c1cccc(Cc2cc(F)cc(C(F)(F)F)c2)c1

- chromatographic logD [1]: 4.4
Structure (SMILES): O=C1NCCc2nn(-c3ccnc(Cc4cc(F)cc(C(F)(F)F)c4)c3)cc21
